Experimental data reported in PMC4347883, “Evaluation of a Triple-Helical Peptide with Quenched Fluorophores for Optical Imaging of MMP-2 and MMP-9 Proteolytic Activity” (Molecules, 2014).
“Also recorded” adds a separate entry of the source.

Tests used:
[1] = system: gelatinase positive HT-1080 human fibrosarcoma cells; experiment: Confocal fluorescence microscopy of 5FAM6-THP hydrolysis in HT-1080 cells; type: cell-based; conditions: SB-3CT 1 µM pre-incubated 30 min, then 5FAM6-THP 1 µM, 1 h, mean of n = 10 cells
Description: Two image fields are shown per condition.

MMP-2 = MMP-2 inhibition by SB-3CT; type: biochemical; conditions: at SB-3CT 72-fold Ki (1 µM)
human-MMP-2 = biological target: T1, human-MMP-2 (Homo sapiens, UniProt P08253); conditions: fTHP comparison; cited from earlier work
T1 construct: purchased Enzo Life Sciences
T1 sequence (P08253 110-660): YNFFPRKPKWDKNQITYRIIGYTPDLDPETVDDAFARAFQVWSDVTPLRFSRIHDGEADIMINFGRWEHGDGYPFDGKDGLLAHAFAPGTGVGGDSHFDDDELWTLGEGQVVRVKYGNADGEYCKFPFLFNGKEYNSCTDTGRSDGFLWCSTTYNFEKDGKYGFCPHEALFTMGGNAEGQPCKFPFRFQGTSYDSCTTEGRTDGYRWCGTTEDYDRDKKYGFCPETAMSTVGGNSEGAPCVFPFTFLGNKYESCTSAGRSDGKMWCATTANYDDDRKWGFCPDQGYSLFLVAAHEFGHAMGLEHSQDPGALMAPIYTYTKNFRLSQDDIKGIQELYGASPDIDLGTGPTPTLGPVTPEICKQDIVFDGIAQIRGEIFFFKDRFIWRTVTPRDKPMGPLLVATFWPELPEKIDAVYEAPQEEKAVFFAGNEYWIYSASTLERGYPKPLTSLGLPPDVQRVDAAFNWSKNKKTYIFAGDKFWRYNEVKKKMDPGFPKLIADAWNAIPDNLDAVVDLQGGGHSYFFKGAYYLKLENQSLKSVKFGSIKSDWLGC
Description: (§1) Table 1 Enzyme kinetic parameters for gelatinase mediated hydrolysis of 5FAM-THPs. | column: KM (μM); kcat (s^−1); kcat/KM (M^−1 s^−1)

human-MMP-9 = biological target: T2, human-MMP-9 (Homo sapiens, UniProt P14780); conditions: fTHP comparison; cited from earlier work
T2 construct: purchased Enzo Life Sciences
T2 sequence (P14780 107-707 limits assumed): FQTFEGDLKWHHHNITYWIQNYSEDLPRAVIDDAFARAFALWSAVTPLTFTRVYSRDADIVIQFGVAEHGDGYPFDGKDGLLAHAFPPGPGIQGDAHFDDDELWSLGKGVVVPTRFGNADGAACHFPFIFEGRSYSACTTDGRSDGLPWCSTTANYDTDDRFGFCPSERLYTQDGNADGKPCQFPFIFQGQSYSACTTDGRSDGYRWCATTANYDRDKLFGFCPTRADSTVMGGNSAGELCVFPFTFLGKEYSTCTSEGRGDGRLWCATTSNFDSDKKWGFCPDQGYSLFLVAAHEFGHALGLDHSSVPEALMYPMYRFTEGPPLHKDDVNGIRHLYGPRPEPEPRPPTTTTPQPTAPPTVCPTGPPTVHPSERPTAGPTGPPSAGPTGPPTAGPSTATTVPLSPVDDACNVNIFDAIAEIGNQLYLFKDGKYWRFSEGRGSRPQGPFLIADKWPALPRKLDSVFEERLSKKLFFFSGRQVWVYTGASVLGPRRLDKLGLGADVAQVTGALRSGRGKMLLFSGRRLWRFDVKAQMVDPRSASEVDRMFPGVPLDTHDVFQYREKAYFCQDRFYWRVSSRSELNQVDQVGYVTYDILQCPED
Description: as §1

MMP-7 = conditions: cited from earlier work

Compound: O=S(=O)(CC1CS1)c1ccc(Oc2ccccc2)cc1 (stereo not shown) [SB-3CT]
- reduction of 5FAM6-THP fluorescence by gelatinase inhibitor [1]: greatly attenuated; also recorded: greatly reduced fluorescence levels when 5FAM6-THP was incubated with HT-1080 cells by three-fold; also recorded: low levels of fluorescence observed in SB-3CT treated HT-1080 cells
- occupancy of MMP-2 at equilibrium (MMP-2): approximately 99%

Compound: (GPhP)5GPK(Mca)GPPG~VVGEK(Dnp)GEN(GPhP)5-NH2 [fTHP, fluorogenic THP substrate with 7-methoxycoumarin and 2,4-dinitrophenyl groups conjugated to the ε-amino groups of Lys]
- Km (human-MMP-2): 4.4 µM
- kcat (human-MMP-2): 0.061 s⁻¹
- kcat/KM (human-MMP-2): 14,002 M^−1 s^−1
- Km (human-MMP-9): 8.1 µM
- kcat (human-MMP-9): 0.044 s⁻¹
- kcat/KM (human-MMP-9): 5,400 M^−1 s^−1

Compound: GVPLSLTMGC [MMP-7 substrate bearing a heterologous donor and acceptor pair of near infrared dyes on the N- and C- termini]
- increase in fluorescence after digestion with MMP-7 (MMP-7; after digestion with MMP-7): ~7 fold
- level of quenching (MMP-7; near infrared donor/acceptor dye pair on N- and C-termini): 85%
